Marks after values point to notes of the source that are not given here.
Tests used:
Caco-2 cells = assay: Memantine in vitro intestinal permeability (Caco-2 cells); format: in vitro ADME; conditions: FIG. 12
cough = conditions: cited from earlier work
[1] = Respiratory parameters during cough challenge; format: in vivo, guinea pig; conditions: 50 mg/kg; controls 117.7(±26.3)
Procedure: Using a similar chamber and nebulizer system, animals were treated first with aerosolized peptidase inhibitors (captopril 0.1 μM and thiorphan 0.1 μM, 5 minutes nebulization) to reduce bradykinin degradation and enhance tussive responses evoked by bradykinin (unpublished observations). Animals were then exposed to increasing concentrations of aerosolized bradykinin (0.1-3 mg/mL), again for 5 minute periods. Coughs are counted during this and the subsequent 5 minutes. Pressure changes within the chamber are used to monitor respiratory rate (Biopac Systems Inc, Goleta, Calif.).

[2] = test system: citric acid induced cough; assay: Citric acid induced cough in conscious guinea pigs; conditions: for Effect on cumulative number of coughs evoked by lower concentrations of citric acid (0.01-0.1 M): 30 mg/kg; for Cumulative numbers of cough, median, citric acid 0.01M / Cumulative numbers of cough, median, citric acid 0.1M / Cumulative numbers of cough, median, citric acid 0.3M / Effect on cumulative number of coughs evoked by citric acid (0.01-0.3M) compared to controls: 30 mg/kg intraperitoneally; for Mean ± sem cumulative coughs / ≧15 Cumulative coughs/total number of guinea pigs: potentially synergistic agents; for Effect of single agent on citric acid (0.01-0.3M) induced cough: oral, 60 minutes prior, memantine 3, guaifenesin 100, diphenhydramine 10, benzonatate 30, ambroxol 100 mg/kg
Procedure: Male Hartley guinea pigs (200-700 g) were studied and all experiments were first approved by the institutional Animal Care and Use Committee.
Animals were placed in a transparent chamber (Buxco Research Systems, Wilmington, N.C.) with a continuous flow of air and exposed to increasing concentrations of citric acid (0.01 M-0.3 M) is delivered by an ultrasonic nebulizer generating aerosol particles of 3-6 μm diameter. Coughs were counted during a 5 minute nebulization period and over the subsequent 5 minutes with the assistance of sound and pressure monitoring from the chamber. Respiratory rate and tidal volume were monitored throughout via a calibrated pressure transducer (Emka Technologies, Falls Church, Va.).
Each of these drugs was administered orally in half-log increments (e.g. 3 mg/kg, 10 mg/kg, 30 mg/kg) in an unpaired experimental design (each animal received only 1 dose of drug). The drugs were administered 60 minutes prior to citric acid challenge, which consisted of 5 minute challenges with aerosols of increasing concentrations of citric acid (0.01-0.3M), with 5 minute intervals in between escalating doses of the tussive stimulus.

[3] = Sedation and side effects observed in the cough studies; conditions: for Sedation (FIG. 20): 30 mg/kg intraperitoneally; for Animals with mild to moderate sedation: n=8; for Sedation: 50 mg/kg, precluded assessment of cough
[4] = test system: citric acid evoked coughing; assay: Microinjection of NMDA receptor antagonists into the central termination sites of the cough receptors; format: in vivo, guinea pig; conditions: anesthetized guinea pigs
[5] = in vivo, po; cited from earlier work
[6] = test system: freezing behavior during cued fear conditioning; assay: Cued fear conditioning in mice; format: in vivo; conditions: diphenhydramine 20 mg/kg IP, p=0.061
Procedure: The effects of memantine on enhancing cognition were investigated with fear conditioning tests on mice. Specifically, the fear conditioning test exposed mice to a conditioned stimulus (a tone) and an unconditioned stimulus (a mild electric shock). The mice learned to associate the tone with the shock as reflected by freezing. After being adequately conditioned, the mice were administered memantine or a control (vehicle alone). […] Fear Conditioning: Fear conditioning mouse chambers (7''W×7''D×12''H; Coulbourne Instruments, […] Valley, Pa.) were housed in sound attenuating chambers. A camera was mounted on the ceiling of the chamber to capture mouse behavior (FreezeFrame software, Coulbourne Instruments, […] Valley, Pa.); data were analyzed by Freezeview software (Coulbourne Instruments, […] Valley, Pa.). Fear conditioning chambers were calibrated prior to each experiment to ensure that each chamber delivers the same shock intensity. […] Pavlovian fear conditioning refers to the learning of associations between a negative reinforcer (e.g., a mild electric foot shock/s), a novel context (e.g. a context) and/or a specific, neutral, cue (e.g., tone or white noise). To assess contextual and cued (tone) learning and memory, a standardized fear conditioning task developed for the evaluation of memory in rodents was used. Protocol: […] Cue-induced Conditioning Testing: Mice were tested for cued memory 48 hours after training. The cued conditioning test was conducted in an altered context (i.e., a different test chamber). […] Statistical Analysis: Data are represented as the mean and standard error to the mean. Data were analyzed by analysis of variance (ANOVA) followed by Fisher PLSD, or unpaired t-tests, when appropriate to test a planned comparison. An effect was considered significant if p<0.05. Statistical outliers that fell above or below two standard deviations from the mean were removed from the final analysis.

## CCCCCCCC/C=C\CCCCCCCC(=O)O [oleic acid]
Caco-2 cells
  Effect as permeation enhancer on memantine Caco-2 permeability: ineffective

## CNC1(c2ccccc2Cl)CCCCC1=O (stereo not shown) [Ketamine]
cough; Young et al.
  Efficacy in chronic cough patients: ineffective
[1]
  mean breathing frequency: 92.3(±18.8) breaths/min
[2]
  Effect on cumulative number of coughs evoked by lower concentrations of citric acid (0.01-0.1 M): not
  Cumulative numbers of cough, median, citric acid 0.01M: 0.0
  Cumulative numbers of cough, median, citric acid 0.1M: 1.5
  Cumulative numbers of cough, median, citric acid 0.3M: 11.0
  Effect on cumulative number of coughs evoked by citric acid (0.01-0.3M) compared to controls: failed to produce a statistically significant reduction in cumulative coughs
[3]
  Sedation (FIG. 20): moderate to severe sedation in the majority of animals studied
  Sedation: severe sedation
[3]; 30 mg/kg, during the cough challenge
  Time at which sedation reversed: 40-50 minutes post-injection
[3]; 30 mg/kg
  Animals with mild to moderate sedation: 87.5%

## CC(O)CO (stereo not shown) [propylene glycol]
Caco-2 cells
  Effect as permeation enhancer on memantine Caco-2 permeability: ineffective

## NC(CCCP(=O)(O)O)C(=O)O (stereo not shown) [AP5]
[4]
  Effect of microinjection on citric acid evoked coughing: prevents citric acid evoked coughing

## Cc1ccc(-c2nc3ccc(C)cn3c2CC(=O)N(C)C)cc1 [zolpidem]
[5]
  orally bioavailable: less than 70%

## N[C@@H](Cc1cc(CP(=O)(O)O)cc(-c2ccccc2Cl)c1)C(=O)O [SDZ220581]
[4]
  Effect of microinjection on citric acid evoked coughing: prevents citric acid evoked coughing

## CCCCNc1ccc(C(=O)OCCOCCOCCOCCOCCOCCOCCOCCOCCOC)cc1 [Benzonatate]
[2]; 10 mg/kg po
  Mean ± sem cumulative coughs: 24 ± 4
  ≧15 Cumulative coughs/total number of guinea pigs: 3/3
[2]; 30 mg/kg po
  Mean ± sem cumulative coughs: 13 ± 4
  ≧15 Cumulative coughs/total number of guinea pigs: 2/5
[2]
  Effect of single agent on citric acid (0.01-0.3M) induced cough: failed to inhibit cough

## CC1CCC(C(C)C)C(O)C1 (stereo not shown) [Menthol]
[2]; 30 mg/kg po
  Mean ± sem cumulative coughs: 21 ± 3
  ≧15 Cumulative coughs/total number of guinea pigs: 3/3
[2]; 100 mg/kg po
  Mean ± sem cumulative coughs: 11±2
  ≧15 Cumulative coughs/total number of guinea pigs: 1/7

## COc1ccc2c(c1)[C@]13CCCC[C@@H]1[C@H](C2)N(C)CC3 [Dextromethorphan]
cough; Bolser 2006
  Efficacy in cough associated with upper respiratory tract infections: ineffective
[1]
  mean breathing frequency: 90.0(±13.7) breaths/min
[2]
  Effect on cumulative number of coughs evoked by lower concentrations of citric acid (0.01-0.1 M): significantly reduced the cumulative number of coughs
  Cumulative numbers of cough, median, citric acid 0.01M: 0.0
  Cumulative numbers of cough, median, citric acid 0.1M: 0.5*
  Cumulative numbers of cough, median, citric acid 0.3M: 7.5
  Effect on cumulative number of coughs evoked by citric acid (0.01-0.3M) compared to controls: failed to produce a statistically significant reduction in cumulative coughs
[4]
  Effect of microinjection on citric acid evoked coughing: prevents citric acid evoked coughing
[3]
  Sedation (FIG. 20): moderate to severe sedation in the majority of animals studied
  Sedation: severe sedation
[3]; 30 mg/kg
  Animals with mild to moderate sedation: 62.5%
[3]; 30 mg/kg, persisted throughout the citric acid challenge
  Duration of sedation: > 2 h

## CN(C)CCOC(c1ccccc1)c1ccccc1 [Diphenhydramine]
[6]
  cue-induced fear conditioning, CS phase, vs vehicle-vehicle: strong trend toward decreased cue-induced fear conditioning

## COc1ccccc1OCC(O)CO (stereo not shown) [Guaifenesin, 3-(2-methoxyphenoxy)-1,2-propanediol]
[2]; 50 mg/kg po
  Mean ± sem cumulative coughs: 30 ± 1
  ≧15 Cumulative coughs/total number of guinea pigs: 3/3
[2]; 100 mg/kg po
  Mean ± sem cumulative coughs: 20 ± 5
  ≧15 Cumulative coughs/total number of guinea pigs: 3/4
[2]
  Effect of single agent on citric acid (0.01-0.3M) induced cough: failed to inhibit cough

## Nc1c(Br)cc(Br)cc1CN[C@H]1CC[C@H](O)CC1 [Ambroxol]
[2]; 100 mg/kg po
  Mean ± sem cumulative coughs: 13 ± 4
  ≧15 Cumulative coughs/total number of guinea pigs: 2/6
[2]
  Effect of single agent on citric acid (0.01-0.3M) induced cough: failed to inhibit cough

Source: patent US8501816B2, “Antitussive compositions comprising memantine” (Cerecor, Inc., priority 2010, dated 2013)
